Key:
[1] = system: caterpillars of the armyworm (Spodoptera frugiperda); test: Spodoptera frugiperda test (SPODFR spray treatment); assay type: in vivo; settings: maize leaf discs, after 7 days; for efficacy: 500 g/ha; for pest or weed control at 500 g/ha: Spodoptera frugiperda, foliar, 168 h, read-out: efficacy
Protocol: Spodoptera frugiperda Test (SPODFR Spray Treatment) Solvent: 78.0 parts by weight of acetone • • 1.5 parts by weight of dimethylformamide Emulsifier: 0.5 part by weight of alkylaryl polyglycol ether To prepare an appropriate active ingredient preparation, 1 part by weight of active ingredient is mixed with the stated amounts of solvent and emulsifier, and the concentrate is diluted with emulsifier-containing water to the desired concentration. Discs of maize leaves (Zea mays) are sprayed with an active ingredient preparation of the desired concentration and, after drying, populated with caterpillars of the armyworm (Spodoptera frugiperda). After 7 days, the efficacy in % is determined. 100% means that all caterpillars have been killed; 0% means that none of the caterpillars have been killed.

[2] = system: larvae of the mustard beetle (Phaedon cochleariae); test: Phaedon test (PHAECO spray treatment); assay type: in vivo; settings: Chinese cabbage discs, after 7 days; for efficacy: 500 g/ha; for pest or weed control at 500 g/ha: Phaedon cochleariae, 168 h, read-out: efficacy
Protocol: Phaedon Test ([…] Spray Treatment) Solvent: 78.0 parts by weight of acetone • • 1.5 parts by weight of dimethylformamide Emulsifier: 0.5 part by weight of alkylaryl polyglycol ether To prepare an appropriate active ingredient preparation, 1 part by weight of active ingredient is mixed with the stated amounts of solvent and emulsifier, and the concentrate is diluted with emulsifier-containing water to the desired concentration. Discs of Chinese cabbage (Brassica pekinensis) are sprayed with an active ingredient preparation of the desired concentration and, after drying, populated with larvae of the mustard beetle (Phaedon cochleariae). After 7 days, the efficacy in % is determined. 100% means that all beetle larvae have been killed; 0% means that none of the beetle larvae have been killed.

adult Musca domestica = test: Musca domestica test; assay type: in vivo; settings: 100 ppm; after 2 days
Protocol: Musca domestica Test Solvent: dimethyl sulphoxide To prepare an appropriate active ingredient formulation, 10 mg of active ingredient are mixed with 0.5 ml of dimethyl sulphoxide and the concentrate is diluted with water to the desired concentration. Vessels containing a sponge treated with the active ingredient preparation of the desired concentration are populated with adult Musca domestica. After 2 days, the kill in % is determined. 100% means that all of the flies have been killed; 0% means that none of the flies have been killed.

[3] = system: unfed adult fleas (Ctenocephalides felis); test: Ctenocephalides felis test (CTECFE); assay type: in vivo; settings: 100 ppm in citrated cow's blood; after 2 days
Protocol: Ctenocephalides felis Test ([…]) Solvent: 1 part by weight of dimethyl sulphoxide For the purpose of preparing an appropriate active ingredient formulation, 10 mg of active ingredient are mixed with 0.5 ml of dimethyl sulphoxide. A portion of the concentrate is diluted with citrated cow's blood and the desired concentration is established. About 20 unfed adult fleas (Ctenocephalides felis) are introduced into a chamber closed at the top and bottom with gauze. A metal cylinder, the bottom of which is closed with Parafilm, is placed onto the chamber. The cylinder contains the blood/active ingredient preparation, which can be imbibed by the fleas through the Parafilm membrane. After 2 days, the kill in % is determined. 100% means that all fleas have been killed; 0% means that none of the fleas have been killed.

Boophilus microplus = Boophilus microplus test (BOOPMI injection); assay type: in vivo; settings: 20 μg animal; injection into the abdomen; after 7 days, laying of fertile eggs
Protocol: Boophilus microplus Test (BOOPMI Injection) Solvent: dimethyl sulphoxide To prepare an appropriate active ingredient formulation, 10 mg of active ingredient are mixed with 0.5 ml of solvent and the concentrate is diluted with solvent to the desired concentration. The active ingredient solution is injected into the abdomen (Boophilus microplus), and the animals are transferred into dishes and stored in a climate-controlled room. The efficacy is assessed by laying of fertile eggs. After 7 days, the efficacy in % is determined. 100% means that none of the ticks has laid any fertile eggs.

[4] = system: green peach aphid (Myzus persicae); test: Myzus test (MYZUPE spray treatment); assay type: in vivo; settings: Chinese cabbage discs, after 6 days; for efficacy: 500 g/ha; for pest or weed control at 500 g/ha: Myzus persicae, 144 h, read-out: efficacy
Protocol: Myzus Test (MYZUPE Spray Treatment) Solvent: 78 parts by weight of acetone • • 1.5 parts by weight of dimethylformamide Emulsifier: 0.5 part by weight of alkylaryl polyglycol ether To prepare an appropriate active ingredient preparation, 1 part by weight of active ingredient is mixed with the stated amounts of solvent and emulsifier, and the concentrate is diluted with emulsifier-containing water to the desired concentration. Discs of Chinese cabbage (Brassica pekinensis) infested by all stages of the green peach aphid (Myzus persicae) are sprayed with an active ingredient preparation of the desired concentration. After 6 days, the efficacy in % is determined. 100% means that all of the aphids have been destroyed; 0% means that none of the aphids have been destroyed.

[5] = system: red spider mite (Tetranychus urticae); test: Tetranychus test, OP-resistant (TETRUR spray treatment); assay type: in vivo; settings: 500 g/ha, bean leaf discs, after 6 days; for pest or weed control at 500 g/ha: Tetranychus urticae, foliar, 144 h, read-out: efficacy
Protocol: Tetranychus Test, OP-Resistant (TETRUR Spray Treatment)
Solvent: 78.0 parts by weight of acetone • • 1.5 parts by weight of dimethylformamide
Emulsifier: 0.5 part by weight of alkylaryl polyglycol ether
To prepare an appropriate active ingredient preparation, 1 part by weight of active ingredient is mixed with the stated amounts of solvent and emulsifier, and the concentrate is diluted with emulsifier-containing water to the desired concentration. Discs of bean leaves (Phaseolus vulgaris) infested by all stages of the red spider mite (Tetranychus urticae) are sprayed with an active ingredient preparation of the desired concentration. After 6 days, the efficacy in % is determined. 100% means that all spider mites have been killed; 0% means that none of the spider mites have been killed.

[6] = logP by HPLC on reversed-phase columns (C 18), EEC Directive 79/831 Annex V.A8; assay type: physicochemical; settings: acidic range pH 2.7, 0.1% aqueous formic acid and acetonitrile; for chromatographic logP: reversed-phase C18 HPLC column, pH 2.7, * LC-MS, read-out: log P
Excerpt: [table] The calibration is effected with unbranched alkan-2-ones (having 3 to 16 carbon atoms) with known logP values (logP values determined on the basis of the retention times by linear interpolation between two successive alkanones).

Structure (SMILES)	efficacy [1] [%]	efficacy [2] [%]	efficacy (kill) [3] [%]	efficacy (Boophilus microplus) [%]	efficacy [4] [%]	efficacy [5] [%]	pest or weed control at 500 g/ha [1] [%]	chromatographic logP [6]	pest or weed control at 500 g/ha [2] [%]	pest or weed control at 500 g/ha [4] [%]	pest or weed control at 500 g/ha [5] [%]	other results
COc1nccnc1-n1nc(C(F)(F)F)c(-c2cc(Cl)cc(Cl)c2)c1N [Ex. 6]	83	100	90	100	–	–	–	–	–	–	–	efficacy (kill) (adult Musca domestica): 80%
C=Cc1nn(-c2nccnc2OC)c(N)c1-c1cc(Cl)cc(C(F)(F)F)c1 [Ex. 9]	100	100	–	100	100	100	–	–	–	–	–	–
COc1nccnc1-n1nc(C(F)(F)F)c(-c2cc(Cl)cc(C(F)(F)F)c2)c1N [Ex. 10]	–	–	90	100	–	–	–	–	–	–	–	efficacy (kill) (adult Musca domestica): 100%
CCOc1nccnc1-n1nc(C(F)(F)F)c(-c2cc(Cl)cc(C(F)(F)F)c2)c1N [Ex. 12]	–	100	90	100	–	90	–	–	–	–	–	efficacy (kill) (adult Musca domestica): 100%
COc1nccnc1-n1nc(C(F)(F)C(F)(F)F)c(-c2cc(F)cc(C(F)(F)F)c2)c1N [Ex. 21]	100	100	–	100	100	100	–	–	–	–	–	efficacy (kill) (adult Musca domestica): 100%
CSc1nccnc1-n1nc(C(F)(F)F)c(-c2cc(Cl)cc(C(F)(F)F)c2)c1N [Ex. 28]	100	100	–	100	–	–	–	–	–	–	–	log P ([6]; * LC-MS): 4.9*
COc1nccnc1-n1nc(C(F)(F)F)c(-c2cc(Cl)cc(C(F)(F)F)c2)c1NCc1ccccc1 [Ex. 33]	–	100	–	–	80	90	–	–	–	–	–	–
COc1ccc(CNc2c(-c3cc(Cl)cc(C(F)(F)F)c3)c(C(F)(F)F)nn2-c2nccnc2OC)cc1 [Ex. 41]	–	100	80	–	90	–	–	–	–	–	–	–
COc1nccnc1-n1nc(C(F)(F)C(F)(F)C(F)(F)F)c(-c2cc(Cl)cc(C(F)(F)F)c2)c1N [Ex. 46]	100	100	80	100	80	80	–	–	–	–	–	–
COc1nccnc1-n1nc(C(F)(F)C(F)F)c(-c2cc(Cl)cc(C(F)(F)F)c2)c1N [Ex. 59]	83	100	–	–	100	100	–	–	–	–	–	–
COc1nccnc1-n1nc(C(F)(F)F)c(-c2cc(Br)c3c(c2)OCO3)c1N [Ex. 74]	–	–	–	–	–	–	100	3.18	100	90	90	–
COc1nccnc1-n1nc(C(C)C)c(-c2cc(Cl)c3c(c2)OCO3)c1N [Ex. 77]	–	–	–	–	–	–	100	2.96	100	100	100	–
COc1cc(-c2c(C(F)(F)F)nn(-c3nccnc3OC)c2N)cc(C(F)(F)F)c1OC [Ex. 89]	100	100	100	100	–	–	–	–	–	–	–	efficacy (kill) (adult Musca domestica): 80%
C=CCN(CC=C)c1c(-c2cc(Cl)cc(C(F)(F)F)c2)c(C(F)(F)F)nn1-c1nccnc1OC [Ex. 103]	–	–	–	–	80	–	–	–	–	–	–	–
COc1nccnc1-n1nc(C(F)(F)F)c(-c2cc(Br)c3c(c2)OCCCO3)c1N [Ex. 131]	100	100	100	100	–	100	–	–	–	–	–	efficacy (kill) (adult Musca domestica): 100%
COc1nccnc1-n1nc(C(F)(F)F)c(-c2cc(Cl)c3c(c2)COCO3)c1N [Ex. 135]	80	100	100	100	–	–	–	–	–	–	–	–
COc1nccnc1-n1nc(C(F)(F)F)c(-c2cc(Cl)c3c(c2)OCCCO3)c1N [Ex. 136]	–	100	100	100	–	–	–	–	–	–	–	–
COc1nccnc1-n1nc(C(F)(F)F)c(-c2cc(C#N)c3c(c2)OCO3)c1N [Ex. 150]	–	–	–	–	–	–	100	2.66	100	100	100	–
C=C(C)c1nn(-c2nccnc2OC)c(N)c1-c1cc(Cl)cc(Cl)c1 [Ex. 167]	–	100	–	–	100	100	–	–	–	–	–	–
COc1nccnc1-n1nc(C(C)(C)F)c(-c2cc(Cl)cc(Cl)c2)c1N [Ex. 168]	100	100	–	–	100	100	–	–	–	–	–	–
COc1nccnc1-n1nc(C(F)(F)Cl)c(-c2cc(Cl)c3c(c2)OCO3)c1N [Ex. 169]	–	–	–	–	–	–	100	3.26	100	100	100	–
CCOc1nccnc1-n1nc(CC)c(-c2cc(Cl)c3c(c2)OCO3)c1N [Ex. 170]	–	–	–	–	–	–	100	2.96	100	100	100	–
CCOc1nccnc1-n1nc(C(F)(F)F)c(-c2cc(Cl)c3c(c2)OCO3)c1N [Ex. 171]	–	–	–	–	–	–	100	3.48	100	100	100	–
CCOc1nccnc1-n1nc(C(F)(F)F)c(-c2cc(C#N)c3c(c2)OCO3)c1N [Ex. 172]	–	–	–	–	–	–	100	3.01	100	100	100	–
COc1nccnc1-n1nc(C(F)(F)F)c(-c2cc(F)c3c(c2)OCO3)c1N [Ex. 174]	–	–	–	–	–	–	100	2.91	100	100	100	–
CCOc1nccnc1-n1nc(C(F)(F)F)c(-c2cc(F)c3c(c2)OCO3)c1N [Ex. 175]	–	–	–	–	–	–	100	3.27	100	100	100	–

Source: US8513260B2, “Pyrazinylpyrazoles” (Bayer CropScience AG, priority 2009, dated 2013)
